pIC50: −log10 of the molar value. Read-outs that look alike come from different tables or passages of the source.
What was measured:
[1] = biological target: Tau-FynSH3 interaction (Homo sapiens (Human), UniProt P10636); assay: Tau-FynSH3 AlphaScreen; format: binding
Summary of the method: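 Purified GST-Fyn-SH3-Strep and His-tagged human 4R2N Tau-Strep from E. coli, tested by AlphaScreen with glutathione donor and nickel chelate acceptor beads in Bis-Tris pH 7.0, TCEP, casein, Tween-20. Compound preincubated 30 min with first protein at 600 nM, then second protein 30 min, then beads 2 h.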

[2] = Metabolic stability in human liver microsomes; format: in vitro ADME; conditions: Table 3, read-out: ADME t1/2 (min): HLMt1/2
Text: (§1) A computational analysis of the top five hits was then completed to assess the physical attributes of the compounds emerging from the HTS. The target profile for drug-like properties included evaluation of molecular weight (MW), total polar surface area (PSA, the surface sum of all polar atoms on the molecule), solubility, metabolic stability, and partition coefficient (LogD). In general, MW<[…] and PSA <70 Å^2 were targeted, which generally allows for blood-brain barrier (BBB) permeability. Compounds with PSA >100 A^2 are generally poor at permeating cell membranes. Solubility was targeted at >10 μM at pH 7.4 and 40-60% of compound remaining after 60 minutes of incubation in mouse or human liver microsomes (an indicator of compound stability after first-pass metabolism). LogD is the log of the ratio of concentrations of a compound in two immiscible solvents at equilibrium. Values ranging from 2-4 were targeted, typical for CNS drugs. Based on these criteria, compound no. 55 was selected as the top hit for optimization. Compound no.

[3] = Partition coefficient (LogD); format: physicochemical; conditions: Table 3; read-out: ADME LogD
Text: as §1

[4] = biological target: Tau-Fyn interaction (Homo sapiens (Human), UniProt P10636); assay: Tau-Fyn PLA screening in HEK-293 cells; format: cell-based; conditions: for PLA: Table 3, Tau-Fyn PLA; for Tau-Fyn interaction in cells, Tau-Fyn PLA in HEK-293 cells: compound 15 μM, 24 hours
Protocol: Tau-Fyn PLA screening in HEK-293 cells: For Tau-Fyn PLA in HEK-293 cells, we used the same plasmids as before (Rush, et al. (2020) Neurobiol Dis 134, 104668): human 4R2N Tau with an N-terminal mKate2 tag in a pcDNA3.1 vector and human Fyn with an N-terminal Myc tag in a pCMV-Sport6 vector grown in Stellar E. coli. HEK-293 cells were plated on coverslips coated with PDL and laminin in a 24-well plate in DMEM supplemented with 10% FBS and 1% PenStrep. Cells were transfected with 125 ng of Tau-mKate2 and Fyn plasmids with 1.5 μL Fugene in plain DMEM. After 24 hours, compound was applied at 15 μM. Twenty-four hours after application, cells were fixed. PLA protocol was the same as above except for different primary antibodies (Tau5 1:500, Fyn3 1:250). After image acquisition, PLA density was calculated as PLA puncta (as above) divided by cell area to account for differences in confluency. Cell area was defined with ImageJ as % Area after theresholding Tau-mKate2 fluorescence because it filled the cells evenly. Puncta/cell area was then normalized to vehicle-treated slides from that experiment.

[5] = Table 2, Tau-FynSH3 inhibitory activity in the AlphaScreen, read-out: IC50
[6] = Table 3, read-out: Alpha screen IC50

Sequence of Tau-FynSH3 interaction (P10636 other isoform, or with tags, fused parts or gaps): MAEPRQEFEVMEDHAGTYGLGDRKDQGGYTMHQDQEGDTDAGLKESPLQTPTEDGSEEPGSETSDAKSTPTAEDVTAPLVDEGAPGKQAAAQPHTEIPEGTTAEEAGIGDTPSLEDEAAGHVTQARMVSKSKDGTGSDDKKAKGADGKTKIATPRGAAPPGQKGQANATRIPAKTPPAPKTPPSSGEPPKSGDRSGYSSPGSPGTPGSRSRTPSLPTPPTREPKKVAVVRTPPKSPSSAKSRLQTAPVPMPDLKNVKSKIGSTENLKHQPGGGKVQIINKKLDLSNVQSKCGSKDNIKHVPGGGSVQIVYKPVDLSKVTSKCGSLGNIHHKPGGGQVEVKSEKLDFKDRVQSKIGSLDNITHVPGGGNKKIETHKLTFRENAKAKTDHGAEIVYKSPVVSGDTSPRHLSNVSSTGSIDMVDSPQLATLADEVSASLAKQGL
Sequence of Tau-Fyn interaction (P10636 other isoform, or with tags, fused parts or gaps): as above

SMILES	AlphaScreen activity (in words) [1]	pIC50 [1, 5]	half-life [2]	logD [3]	PLA [4]	Tau-Fyn interaction in cells, Tau-Fyn PLA in HEK-293 cells [4]	pIC50 [1, 6]	pIC50 ([1]; unit printed as 'M', Table 2 gives 0.55 μM, read-out: IC50, inhibition in the AlphaScreen)
O=C(CN1C(=O)CSc2cc(F)ccc21)Nc1nnc(-c2ccccn2)[nH]1 [compound no. 12, 2-(7-FLUORO-3-oxo-2H-BENZO[B][1,4]THIAZIN-4(3H)-YL)-N-(5-(PYRIDIN-2-YL)-4H-1,2,4-TRIAZOL-3-YL)ACETAMIDE]	submicromolar IC50	6.00	> 300 min	2.4	Active	reduced Tau-Fyn interaction in cells	–	–
O=C(CCN1C(=O)CSc2ccccc21)Nc1nnc(-c2ccccn2)[nH]1 [compound no. 55]	–	5.30	–	–	–	reduced Tau-Fyn interaction in cells	–	–
O=C(CN1CCOc2ccccc21)Nc1nnc(-c2ccccn2)[nH]1 [compound 47, 2-(2,3-DIHYDRO-4H-BENZO[B][1,4]OXAZIN-4-YL)-N-(5-(PYRIDIN-2-YL)-4H-1,2,4-TRIAZOL-3-YL)ACETAMIDE]	–	6.49	93 min	1.8	Active	–	6.04	–
Cc1ccc2c(c1)SCC(=O)N2CC(=O)Nc1nnc(-c2ccccn2)[nH]1 [compound no. 23, 2-(7-METHYL-3-OXO-2H-BENZO[B][1,4]THIAZIN-4(3H)-YL)-N-(5-(PYRIDIN-2-YL)-4H-1,2,4-TRIAZOL-3-YL)ACETAMIDE]	–	6.10	133 min	2.2	Active	reduced Tau-Fyn interaction in cells	–	–
O=C(CN1CCOc2ccccc21)Nc1nnc(-c2ccccn2)[nH]1 [compound no. 69]	submicromolar activity	–	–	–	–	reduced Tau-Fyn interaction in cells	–	–
O=C(CN1CCCc2ccccc21)Nc1nnc(-c2ccccn2)[nH]1 [compound no. 45, 2-(3,4-DIHYDROQUINOLIN-1(2H)-YL)-N-(5-(PYRIDIN-2-YL)-4H-1,2,4-TRIAZOL-3-YL)ACETAMIDE]	–	5.90	66 min	2.3	Active	reduced Tau-Fyn interaction in cells	–	–
O=C(CN1C(=O)CSc2cc(Cl)ccc21)Nc1nnc(-c2ccccn2)[nH]1 [compound no. 13, 2-(7-CHLORO-3-OXO-2H-BENZO[B][1,4]THIAZIN-4(3H)-YL)-N-(5-(PYRIDIN-2-YL)-4H-1,2,4-TRIAZOL-3-YL)ACETAMIDE]	–	–	> 120 min	3.1	Active	reduced Tau-Fyn interaction in cells	6.03	–
O=C(CN1C(=O)CSc2cc(F)c(F)cc21)Nc1nnc(-c2ccccn2)[nH]1 [compound no. 14, 2-(6,7-DIFLUORO-3-OXO-2H-BENZO[B][1,4]THIAZIN-4(3H)-YL)-N-(5-(PYRIDIN-2-YL)-4H-1,2,4-TRIAZOL-3-YL)ACETAMIDE]	–	–	137 min	1.9	Inactive	did not reduce Tau-Fyn interaction in cells	6.05	–
O=C(CN1CCSc2ccccc21)Nc1nnc(-c2ccccn2)[nH]1 [compound no. 20, 2-(2H-BENZO[B][1,4]THIAZIN-4(3H)-YL)-N-(5-(PYRIDIN-2-YL)-4H-1,2,4-TRIAZOL-3-YL)ACETAMIDE]	–	6.26	85 min	2.3	–	–	6.26	6.26

Reference: patent publication US20250367209A1 (SOUTHERN RESEARCH INSTITUTE, priority 2022, published 2025)
